Data published in ChEMBL document CHEMBL5726465, “Therapeutic compounds” (2019).

Molecular target: CREB-binding protein (Homo sapiens, UniProt Q92793)
Test: In Vitro Enzyme Inhibition Assay-CREBBP Inhibition: Determination of the IC50 for the CREBBP inhibitors disclosed herein was performed as follows: CREBBP was cloned and expressed in E. Coli as His-tag protein and purified by Nickel affinity and gel-filtration chromatography. The protein was further characterized as a single band with the correct molecular weight by SDS-PAGE. CREBBP binding and inhibition was assessed by monitoring the interaction of biotinylated H4-tetraacetyl peptide (AnaSpec, H4K5/8/12/16(Ac), biotin-labeled) with the target using the AlphaScreen technology (Perkin Elmer). In a 384-well ProxiPlate CREBBP (50 nM final) was combined with peptide (20 nM final) in 50 mM HEPES (pH 7.3), 10 mM NaCl, 0.25 mM TCEP, 0.1% (w/v) BSA, and 0.005% (w/v) Brij-35 either in the presence of DMSO (final 0.4% DMSO) or compound dilution series in DMSO. After 20-minute incubation at room temperature, Alpha streptavidin donor beads and Nickel Chelate acceptor beads were added to a final concentration of 5 μg/mL. After two hours of equilibration, plates were read on an Envision instrument and the IC50 was calculated using a four parameter non-linear curve fit.The ability of the compounds disclosed herein to inhibit CBP activity was quantified and the respective IC50 value was determined.

Chain of CREB-binding protein (Q92793 whole entry): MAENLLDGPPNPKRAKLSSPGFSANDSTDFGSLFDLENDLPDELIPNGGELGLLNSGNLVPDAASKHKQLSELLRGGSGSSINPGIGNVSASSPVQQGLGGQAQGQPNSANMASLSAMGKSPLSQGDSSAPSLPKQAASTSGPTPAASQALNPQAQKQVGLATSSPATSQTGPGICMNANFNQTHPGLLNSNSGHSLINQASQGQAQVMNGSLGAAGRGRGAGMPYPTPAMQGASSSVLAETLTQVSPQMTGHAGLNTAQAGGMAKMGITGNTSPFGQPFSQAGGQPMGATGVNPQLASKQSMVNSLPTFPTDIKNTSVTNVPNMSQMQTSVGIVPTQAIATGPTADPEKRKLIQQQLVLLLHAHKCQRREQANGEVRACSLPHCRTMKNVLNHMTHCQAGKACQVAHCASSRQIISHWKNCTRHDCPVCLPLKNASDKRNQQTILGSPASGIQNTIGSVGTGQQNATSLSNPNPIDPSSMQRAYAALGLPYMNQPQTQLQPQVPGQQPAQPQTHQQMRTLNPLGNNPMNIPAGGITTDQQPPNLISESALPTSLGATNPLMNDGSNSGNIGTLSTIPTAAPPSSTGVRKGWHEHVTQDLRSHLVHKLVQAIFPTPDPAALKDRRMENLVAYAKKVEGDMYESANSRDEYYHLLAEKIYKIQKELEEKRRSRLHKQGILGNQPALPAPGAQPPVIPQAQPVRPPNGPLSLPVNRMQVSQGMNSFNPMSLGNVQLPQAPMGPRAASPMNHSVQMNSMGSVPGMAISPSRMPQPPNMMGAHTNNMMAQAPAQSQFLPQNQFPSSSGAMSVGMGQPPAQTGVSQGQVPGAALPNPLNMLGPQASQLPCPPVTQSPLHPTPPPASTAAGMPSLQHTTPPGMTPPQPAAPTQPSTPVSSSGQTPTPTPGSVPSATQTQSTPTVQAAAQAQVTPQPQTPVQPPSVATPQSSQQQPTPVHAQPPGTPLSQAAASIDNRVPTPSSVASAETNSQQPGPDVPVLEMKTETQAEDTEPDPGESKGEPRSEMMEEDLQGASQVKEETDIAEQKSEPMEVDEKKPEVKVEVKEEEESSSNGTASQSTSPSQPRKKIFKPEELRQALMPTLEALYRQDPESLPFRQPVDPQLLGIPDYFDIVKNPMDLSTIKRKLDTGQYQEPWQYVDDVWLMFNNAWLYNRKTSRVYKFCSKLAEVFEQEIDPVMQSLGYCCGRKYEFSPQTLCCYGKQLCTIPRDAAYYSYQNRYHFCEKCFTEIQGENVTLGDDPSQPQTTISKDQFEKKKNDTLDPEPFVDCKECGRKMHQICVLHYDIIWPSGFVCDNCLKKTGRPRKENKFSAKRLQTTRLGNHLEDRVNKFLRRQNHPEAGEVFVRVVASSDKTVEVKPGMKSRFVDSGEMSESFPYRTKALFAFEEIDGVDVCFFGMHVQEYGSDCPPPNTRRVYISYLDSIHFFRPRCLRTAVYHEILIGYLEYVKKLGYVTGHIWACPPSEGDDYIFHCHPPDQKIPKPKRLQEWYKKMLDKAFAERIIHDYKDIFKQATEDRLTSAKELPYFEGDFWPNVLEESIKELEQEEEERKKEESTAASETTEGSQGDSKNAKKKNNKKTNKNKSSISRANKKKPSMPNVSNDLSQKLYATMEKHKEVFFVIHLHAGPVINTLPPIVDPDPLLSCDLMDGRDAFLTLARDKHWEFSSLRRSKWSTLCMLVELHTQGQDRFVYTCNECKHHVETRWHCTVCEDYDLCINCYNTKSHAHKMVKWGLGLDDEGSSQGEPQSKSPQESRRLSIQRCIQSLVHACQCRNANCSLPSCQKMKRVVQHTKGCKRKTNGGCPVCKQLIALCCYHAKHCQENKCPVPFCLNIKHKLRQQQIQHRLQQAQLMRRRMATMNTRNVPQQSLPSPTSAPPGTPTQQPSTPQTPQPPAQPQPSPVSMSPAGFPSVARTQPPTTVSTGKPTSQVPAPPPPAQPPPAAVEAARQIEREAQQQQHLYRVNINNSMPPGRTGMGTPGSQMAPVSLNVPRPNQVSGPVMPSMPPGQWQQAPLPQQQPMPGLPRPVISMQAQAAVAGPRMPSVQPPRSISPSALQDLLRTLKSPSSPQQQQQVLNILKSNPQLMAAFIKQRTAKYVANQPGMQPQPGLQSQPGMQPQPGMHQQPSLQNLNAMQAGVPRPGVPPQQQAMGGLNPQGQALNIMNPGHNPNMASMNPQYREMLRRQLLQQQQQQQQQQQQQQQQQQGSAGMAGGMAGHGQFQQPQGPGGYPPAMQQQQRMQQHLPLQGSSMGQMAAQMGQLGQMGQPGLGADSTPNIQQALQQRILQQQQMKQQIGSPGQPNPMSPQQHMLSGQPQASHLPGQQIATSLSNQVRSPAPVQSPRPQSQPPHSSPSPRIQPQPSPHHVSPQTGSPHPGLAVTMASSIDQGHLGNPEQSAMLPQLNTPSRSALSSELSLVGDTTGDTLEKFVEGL

| Compound | IC50 |
| --- | --- |
| CCCCS(=O)(=O)Nc1cc(-c2cc(Cl)c(=O)n(C)c2)nc(Oc2c(C)cccc2Cl)n1 | < 0.5 µM |
| Cc1cccc(F)c1Oc1nc(NS(=O)(=O)CCC2CC2)cc(-c2ccc(=O)n(C)c2)n1 | < 0.5 µM |
| CCNc1cc(-c2cc(C)c(=O)n(C)c2)nc(Oc2ccc(F)cc2F)n1 | < 0.5 µM |
| CCCCS(=O)(=O)Nc1nc(Oc2c(C)cccc2C)nc(-c2cc(C)c(=O)n(C)c2)n1 | < 0.5 µM |

Now from value to molecule:

| IC50 | Compound |
| --- | --- |
| < 0.5 µM | Cc1cccc(Cl)c1Oc1nc(NS(=O)(=O)C(C)C)cc(-c2cc(Cl)c(=O)n(C)c2)n1 |
| < 0.5 µM | Cc1cccc(F)c1Oc1nc(NS(=O)(=O)CC2CC2)cc(-c2ccc(=O)n(C)c2)n1 |
| < 0.5 µM | Cc1cccc(F)c1Oc1nc(NS(=O)(=O)CCC(F)(F)F)cc(-c2ccc(=O)n(C)c2)n1 |
